Like-named read-outs stand apart in the source and are kept apart here.
Columns and labels:
[1] = test system: human functional connectome at rest; test: Resting-state BOLD-fMRI, graph theory: nodal local efficiency (mesoscale); same doses, time and cohort; type: in vivo; conditions: post-hoc paired t-tests, FDR
Protocol: (§1) Each experimental session began with the treatment administration protocol that lasted about 22 min in total (Fig. 8, lower panel). After drug administration, participants were guided to the MRI scanner, where eight pulsed continuous arterial spin labelling scans (each lasting approx. eight minutes) were acquired, spanning 15–104 min post-dosing (data reported elsewhere[11]). The 8-min resting state BOLD-fMRI scan reported herein was obtained at about 57 ± 3.38 min post-dosing. Participants were instructed to lie still and maintain their gaze on a centrally placed fixation cross during scanning. We assessed participants’ levels of alertness (anchors: alert-drowsy) and excitement (anchors: excited-calm) using visual analogue scales (0–100) at three different time-points during the scanning session to evaluate subjective drug effects across time (data reported elsewhere[11]).
(§2) We used the CONN functional connectivity toolbox[97] to generate brain-wide functional connectivity matrices for each subject/session. […] The default atlas of the CONN toolbox includes 132 non-overlapping ROIs spanning cortical and subcortical areas and the cerebellum using a combination of the cortical and subcortical areas from the FSL Harvard-Oxford atlas and of the cerebellar areas of the Automatic Anatomical Labelling atlas (Supplementary data 1 for a detailed description). […] Finally, we normalized our correlation measures to z-scores using the Fisher’s r-z transform per subject/session.
We then used our z-transformed connectivity matrices to construct brain graphs representing a functional connectivity network for each subject/session. We used an undirected signed weighted approach in which we kept information about the sign and weight of each of the connections between the nodes (ROIs) of our network, without making assumptions about the direction of this relationship. […]
(§3) For each of the graph metrics analysed, we summarized the different values over the range of thresholds using the area under the curve (AUC), instead of applying multiple testing for each metric/threshold. […]

[2] = test system: human functional connectome at rest; test: Resting-state BOLD-fMRI, graph theory: node degree (mesoscale); same doses, time and cohort; type: in vivo; conditions: post-hoc paired t-tests, FDR
Protocol: as §1, §2
We then used our z-transformed connectivity matrices to construct brain graphs representing a functional connectivity network for each subject/session. We used an undirected signed weighted approach in which we kept information about the sign and weight of each of the connections between the nodes (ROIs) of our network, without making assumptions about the direction of this relationship. These connectivity matrices represent fully connected networks, where each node corresponds to each of the ROIs we used to build the functional connectivity matrices and each edge represents the z-transformed value of functional connectivity between a pair of nodes. […] We used the fully weighted networks to calculate equi-sparse networks by retaining a fixed percentage (K) of the total amount of possible edges. […]
as §3

[3] = Plasma oxytocin concentration by radioimmunoassay after 40 IU intranasal (spray or nebuliser) or 10 IU intravenous oxytocin; type: in vivo, human; conditions: for level at 0.95 h: male, human, 57 minutes post-administration (from last treatment offset), read-out: Concentration of plasmatic oxytocin
Text: We employed a double-blind, placebo-controlled, triple-dummy, crossover design. Participants visited our centre for 4 experimental sessions spaced 8.90 days apart on average (SD = 5.65, range: 5–28 days). In each session, participants received treatment via all three administration routes, in one of two fixed sequences: either nebuliser/intravenous infusion/standard nasal spray, or standard nasal spray/intravenous infusion/nebuliser, according to the treatment administration scheme presented in Fig. 8 (upper panel). In three out of four sessions only one route of administration contained the active drug; in the fourth session, all routes delivered placebo or saline. Participants were randomly allocated to a treatment order (i.e. a specific plan regarding which route delivered the active drug in each experimental session) that was determined using a Latin square design. Unbeknown to the participants, the first treatment administration method in each session always contained placebo (see Fig. 8, upper panel), while intranasal (spray or nebuliser) oxytocin was only delivered with the third treatment administration. This protocol maintained double-blinding while avoiding the potential washing-out of intranasally deposited oxytocin (as might have been the case if oxytocin had been administered at the first treatment administration point and placebo at the third administration point). All sessions were conducted during the morning to minimise potential circadian variability in resting brain activity[79] or oxytocin levels.
For the intranasal administrations, participants self-administered a nominal dose of 40 IU oxytocin (Syntocinon; 40 IU/ml; Novartis, Basel, Switzerland), one of the highest clinically applicable doses[81] that would insure that lack of effects on the brain are unlikely to result from under-dosing. We have shown that 40 IU delivered with a standard nasal spray induce robust rCBF changes in two different cohorts of healthy men using between-[12] and within-subjects[11] designs. Work from others have also reported this dose to modulate resting functional connectivity[19],[82]. For the intranasal administration, we used specially manufactured placebo that contained the same excipients as Syntocinon except for oxytocin. Participants self-administered intranasal oxytocin or placebo with the nasal spray or nebuliser following under the supervision of the lead experimenter who ensured the correct application of the devices. Additionally, all participants had been trained during the screening visit in the correct administration procedures.
Participants followed our standard in-house protocol that we have used consistently across all of our studies and is consistent with the guidelines outlined by Guastella et al. (2013)[83]. […] Participants blocked opposite nostril while administering each puff, and each puff was followed by an immediate, brief, sharp, snort.
Participants self-administered 40 IU oxytocin (Syntocinon) or placebo, by operating the SINUS nebulizer for 3 min in each nostril (6 min in total), according to instructions. The correct application of the device was confirmed by determining gravimetrically the administered volume. Participants were instructed to breathe using only their mouth and to keep a constant breathing rate with their soft palate closed, to minimize delivery to the lungs. Previous studies using this nebuliser[34] have shown up to 9.0% (±1.9%) of the total administered dose to be delivered to the olfactory region, 15.7% (±2.4%) to the upper nose.
For the intravenous administration, we delivered 10 IU oxytocin (Syntocinon injection formulation, 10 IU/ml, Alliance, UK) or saline via slow infusion over 10 min (1IU/min). A 50-ml syringe was loaded with either 32 ml of 0.9% sodium chloride (placebo) or 30 ml of 0.9% sodium chloride with […] of Syntocinon (10 IU/ml). […]

With `CC[C@H](C)[C@@H]1NC(=O)[C@H](Cc2ccc(O)cc2)NC(=O)[C@@H](N)CSSC[C@@H](C(=O)N2CCC[C@H]2C(=O)N[C@@H](CC(C)C)C(=O)NCC(N)=O)NC(=O)[C@H](CC(N)=O)NC(=O)[C@H](CCC(N)=O)NC1=O` [oxytocin] the “Nodes with increased local efficiency compared to placebo” value (shortened to “Nodes with increased local efficiency”) ([1]; intravenous, 10 IU) was “increased the local efficiency of the right superior frontal gyrus, right frontal pole, anterior cingulate, left cuneal cortex, right posterior supramarginal gyrus and the brainstem”, the “Nodes with increased local efficiency” value ([1]; nebuliser, 40 IU intranasal) was “increased the local efficiency of the right cuneal cortex and the left posterior supramarginal gyrus” and the “Nodes with increased local efficiency” value ([1]; spray, 40 IU intranasal) was “increased the local efficiency of the right superior frontal gyrus, right anterior and posterior medial temporal gyri, right posterior superior temporal gyrus, right cuneal cortex and left cerebellum (area 1)”. The “Nodes with decreased node degree compared to placebo” value ([2]; intravenous, 10 IU) was “decreased the node degree of the precuneus and right temporal pole”, the “Nodes with increased node degree compared to placebo” value ([2]; nebuliser, 40 IU intranasal) was “increased the node degree of the left posterior superior temporal gyrus and left cerebellum (area 7)” and the “Nodes with decreased node degree compared to placebo” value ([2]; spray, 40 IU intranasal) was “decreased the node degree of the right posterior inferior temporal gyrus”. The “Nodes with increased node degree compared to placebo” value ([2]; spray, 40 IU intranasal) was “increased node degree of the brainstem, left cerebellum (area 1) and right intracalcarine cortex”, the “Plasmatic oxytocin concentrations at post-administration, intravenous versus other conditions” value ([3]; 57 min post-administration, all pTukey < 0.010) was “higher in the intravenous condition than in all the other three treatment conditions” and the “Plasma oxytocin concentrations, spray versus nebuliser” value ([3]; 57 min post-administration, pTukey = 1.000) was “did not differ”. For the same compound, the “Plasma oxytocin concentration at 57 min post-administration compared to baseline” value ([3]; Intranasal (spray, nebuliser) and intravenous administrations, all pTukey < 0.010) was “increased plasma oxytocin concentration”, the “Concentration of plasmatic oxytocin” value ([3]; Nebuliser (40 IU intranasal, PARI SINUS nebuliser), 57 minutes post-administration, plasma, radioimmunoassay after extraction, mean, n = 16 healthy men) was 7.207 pg/mL and the level at 0.95 h ([3]; inhaled or intranasal, Spray (40 IU intranasal, standard nasal spray), plasma, radioimmunoassay after extraction, mean, n = 16 healthy men) was 7.03 pg/mL. The level at 0.95 h ([3]; Intravenous (10 IU infusion over 10 min, 1IU/min), plasma, radioimmunoassay after extraction, mean, n = 16 healthy men) was 16.4 pg/mL.

— paper PMC7811009, “Oxytocin modulates local topography of human functional connectome in healthy men at rest” (Communications Biology, 2021)
